In patent publication US5242935A, “Method for treatment of neurodegenerative diseases” (R. J. Reynolds Tobacco Company, priority 1992, dated 1993):

Key:
[1] = tested on: synaptosomes from the striatal area of rat brain; test: [3H]Dopamine release from rat striatal synaptosomes (continuous perfusion); format: cell-based, rat (Sprague-Dawley); conditions: 0.2 ml of a 20 μM solution of ligand, relative to equal concentration of S(-) nicotine, read-out: Dopamine Release (percent release relative to S(-) nicotine)
Protocol: Dopamine release was measured by preparing synaptosomes from the striatal area of rat brain obtained from Sprague-Dawley rats generally according to the procedures set forth by Nagy, et al., J. Neurochem., Vol. 43, pp. 1114-1123 (1984). Striata from 4 rats were homogenized in 2 ml of 0.32M sucrose buffered with 5 mM HEPES (pH 7.5), using a glass-teflon tissue grinder. The homogenate was diluted to 5 ml with additional homogenization solution and centrifuged at 1000×g for 10 min. This procedure was repeated on the new pellet
the resulting supernatant was centrifuged at 12,000×g for 20 min. A 3 layer discontinuous Percoll gradient consisting of 16 percent, 10 percent and 7.5 percent Percoll in HEPES-buffered sucrose was made with the final pellet dispersed in the top layer. After centrifugation at 15,000×g for 20 min., the synaptosomes were recovered above the 16 percent layer with a pasteur pipette, diluted with 8 ml of perfusion buffer (128 mM NaCl, 2.4 mM KCl, 3.2 mM CaCl2, 1.2 mM KH2 PO4, 1.2 mM MgSO4, 25 mM HEPES pH 7.4, 10 mM dextrose, 1 mM ascorbate, 0.01 mM pargyline), and centrifuged at 15,000×g for 20 min. The new pellet was collected and re-suspended in perfusion buffer. The synaptosome suspension was incubated for 10 min. at 37° C. Then [^3 H]dopamine (Amersham, 40-60 Ci/mmol) was added to the suspension to give a final concentration of 0.1 μM in suspension, and the suspension was incubated for another 5 min. Using this method, 30 to 90 percent of the dopamine was taken up into the synaptosomes, as determined by scintillation counting following filtration through glass fiber filters soaked with 0.5 percent polyethyleneimine. A continuous perfusion system was used to monitor release following exposure to each ligand (i.e., 5-fluoronicotine, 5-bromonicotine, 4^1 -methylnicotine, 5'-methylnicotine, and 5-methylnicotine). Synaptosomes were loaded onto glass fiber filters (Gelman type A/E). Perfusion buffer was dripped onto the filters (0.2-0.3 ml/min.) and pulled through the filters with a peristaltic pump. Synaptosomes were washed with perfusion buffer for a minimum of 20 min. before addition of the ligand. After the addition of a 0.2 ml of a 20 μM solution of ligand, the perfusate was collected into scintillation vials at 1 min. intervals and the dopamine released was quantified by scintillation counting. Peaks of radioactivity released above background were summed and the average basal release during that time was subtracted from the total. Release was expressed as a percentage of release obtained with an equal concentration of S(-) nicotine.

[2] = molecular target: high affinity nicotinic receptors; test: Inhibition of L-[3H]nicotine binding to mouse brain membrane preparations; parameters: species or system mouse (DBA strain); conditions: mouse brain membranes, 2 hr at 4° C., Ki calculated from IC50 by Cheng method
Protocol: Mice (DBA strain) were maintained on a 12 hour light/dark cycle and were allowed free access to water and food supplied by Wayne Lab Blox, Madison, WI. Animals used in the present studies were 60 to 90 days of age and weighed 20 to 25 g. Brain membrane preparations were obtained from pooled brain tissue of both males and females.
Mice were killed by cervical dislocation. Brains were removed and placed on an ice-cold platform. The cerebellum was removed and the remaining tissue was placed in 10 volumes (weight:volume) of ice-cold buffer (Krebs-RingersHEPES:NaCl, 118 mM; KCl, 4.8 mM; CaCl2, 2.5 mM; MgSO4, 1.2 mM; HEPES, 20 mM; pH to 7.5 with NaOH) and homogenized with a glass-Teflon tissue grinder. The resulting homogenate was centrifuged at 18000×g for 20 min. and the resulting pellet was resuspended in 20 volumes of water. After 60 min. incubation at 4.C, a new pellet was collected by centrifugation at 18000×g for 20 min. After resuspension in 10 volumes of buffer, a new final pellet was again collected by centrifugation at 18000×g for 20 min. Prior to each centrifugation step, the suspension was incubated at 37° C. for 5 min. to promote hydrolysis of endogenous acetylcholine. The final pellet was overlayered with buffer and stored at -70° C. On the day of the assay, that pellet was thawed, resuspended in buffer and centrifuged at 18000×g for 20 min. The resulting pellet obtained was resuspended in buffer to a final concentration of approximately 5 mg protein/ml. Protein was determined by the method of Lowry, et al., J. Biol. Chem., Vol. 193, pp. 265-275 (1951), using bovine serum albumin as the standard.
The binding of L-[^3 H]nicotine was measured using a modification of the method of Romano, et al., Science, Vol. 210, pp. 647-650 (1980) as described previously by Marks, et al., Mol. Pharmacol., Vol. 30, pp. 427-436 (1986). The binding of L-[^3 H]nicotine was measured using a 2 hr. incubation at 4° C. Incubations contained about 500 μg of protein and were conducted in 12 mm×75 mm polypropylene test tubes in a final incubation volume of 250 μl. The incubation buffer was Krebs-Ringers HEPES containing 200 mM TRIS buffer, pH 7.5. The binding reaction was terminated by filtration of the protein containing bound ligand onto glass fiber filters (Micro Filtration Systems) that had been soaked in buffer containing 0.5 percent polyethyleneimine. Filtration vacuum was -50 to -100 torr. Each filter was washed five times with 3 ml of ice-cold buffer. The filtration apparatus was cooled to 2° C. before use and was kept cold through the filtration process. Nonspecific binding was determined by inclusion of 10 μM nonradioactive nicotine in the incubations. The inhibition of L-[^3 H]nicotine binding by test compounds was determined by including one of eight different concentrations of the test compound in the incubation. Inhibition profiles were measured using 10 nM L-[^3 H]nicotine and IC50 values were estimated as the concentration of compound that inhibited 50 percent of specific L-[^3 H]nicotine binding. Inhibition constants (Ki values) were calculated from the IC50 values using the method of Cheng, et al., Biochem. Pharmacol., Vol. 22, pp. 3099-3108 (1973). […] The L-[^3 H]nicotine used in all experiments was purified chromatographically by the method of Romm, et al., Life Sci., Vol. 46, pp. 935-943 (1990).

Structure (SMILES) | Emax at 20 µM [1] [%] | Ki [2] [nM]
CN1CCCC1c1cncc(F)c1 (racemic) [5-fluoronicotine] | 110 | 61 ± 16
Cc1cncc(C2CCCN2C)c1 (racemic) [5-methylnicotine] | 30 | 2 ± 0.8
CC1CC(c2cccnc2)N(C)C1 (racemic) [4^1 -methylnicotine] | 40 | 91 ± 7
CC1CCC(c2cccnc2)N1C (racemic) [5^1 -methylnicotine] | 5 | 6400
CN1CCCC1c1cncc(Br)c1 (racemic) [5-bromonicotine] | 65 | 44 ± 12
